The source of these data is patent EP2140864A2 (H. Lundbeck A/S, priority 2001, dated 2002).

Marks after values point to notes of the source that are not given here.

One assay addresses T1, human 5HT6 (Homo sapiens, UniProt P50406).
T1 construct: expressed in transfected cells
Nature of the assay: Radioligand binding, 5-HT6 receptor. The note with it: for Ki: Table 7, read-out: h5HT6 Ki; for selectivity ratio h5HT6: Table 8, Ki h5HT6 divided by Ki hGAL3. The protocol: Other 5-HT Receptors: Other serotonin receptor binding assays were performed according to published methods: rat 5HT2C receptor (Julius et al., 1988); and 5-HT6 (Monsma, et al., 1993). The binding assays using the 5-HT4 receptor were performed according to the procedures described in U.S. Patent No. 5,766,879, the disclosure of which is hereby incorporated by reference in its entirety into this application.
(§1) Binding data were analyzed using nonlinear regression and statistical techniques available in the GraphPAD Prism package (San Diego, CA). Enzymatic assay data were derived from a standard curve of reference compound data.

In assay [1] the target is NE transporter (Rattus norvegicus, UniProt Q63380). Nature of the assay: Binding at native NE transporter. The note with it: Table 7; native transporter, head prints r (rat); read-out: rNE Uptk Ki. The protocol:
(§2) The binding properties of the compounds of the present invention were evaluated at one or more cloned receptors or native, tissue-derived transporters, using protocols described below.
(§3) The methods to determine binding affinity at native transporters are described in the following publications: 5HT transporter and NE transporter (Owens et al., 1997), and DA transporter (Javitch et al, 1984).
as §1

Assay [2] concerns NE transporter. Nature of the assay: Binding at native NE transporter. The note with it: Table 8; Ki rNE Uptk divided by Ki hGAL3. Here is the method:
as §2, §3, §1

A further assay has as its target 5HT transporter (Rattus norvegicus, UniProt P31652). In words: Binding at native 5HT transporter. To be noted: for Ki: Table 7, native transporter, head prints r (rat), read-out: r5HT Uptk Ki; for selectivity ratio r5HT Uptk: Table 8, Ki r5HT Uptk divided by Ki hGAL3. The protocol:
as §2, §3, §1

The subject of the next assay is Male Sprague-Dawley rats. Nature of the assay: Rat Forced Swim Test (FST). The note with it: for Climbing / Diving / Immobility / Swimming: single administration, 1 hr. before test; for antidepressant profile in the FST (conclusion): overall conclusion of the study. In kind it is in vivo. Here is the method:
The procedure used in this study was similar to that previously described (Porsolt, et al., 1978), except the water depth (30 cm in this procedure). The greater depth in this test prevented the rats from supporting themselves by touching the bottom of the cylinder with their feet. Swim sessions were conducted by placing rats in individual plexiglass cylinders (46 cm tall x 20 cm in diameter) containing 23-25°C water 30 cm deep (Porsolt, et al. used a depth of only 15 cm; also, see Detke, et al., 1995). Two swim tests were conducted always between 1200 and 1800 hours: an initial 15-min pretest followed 24 h later by a 5-minute test. […] All other test sessions were conducted between 1300 to 1700 hours. Following all swim sessions, rats were removed from the cylinders, dried with paper towels and placed in a heated cage for 15 minutes and returned to their home cages. All test sessions were videotaped using a Panasonic color video camera and recorder for scoring later.
Male Sprague-Dawley rats (Taconic Farms, NY) were used in all experiments. Rats were housed in pairs and maintained on a 12:12-h light-dark cycle. Rats were handled for 5 minutes each day for 5 days prior to behavioral testing.
The rat's behavior was rated at 5 second intervals during the 5 minute test as one of the following: • 1. Immobility- rat remained floating in the water without struggling and was only making those movements necessary to keep its head above water; • 2. Climbing - rat was making active movements with its forepaws in and out of the water, usually directed against the walls; • 3. Swimming - rat was making active swimming motions, more than necessary to merely maintain its head above water, e.g. moving around in the cylinder; and • 4. Diving - entire body of the rat was submerged.
All of the behavior scoring was done by a single rater, who was blind to the treatment condition. The rater was also present in the room throughout the entire test period.
All injections were given using 1 cc tuberculin syringe with 26 3/8 gauge needles (Becton-Dickinson, VWR Scientific, Bridgeport, NJ). The volume of injection was 1 ml/kg.
The drugs were dissolved in 100% N,N-dimethylacetamide. All administrations were given using 1 cc tuberculin syringes, to which a 3 inch, curved, stainless steel gavage needle was attached. The volume of administration was 1 ml/kg.
The compounds were dissolved in 100% N,N-dimethylacetamide. All administrations were given using 1 cc tuberculin syringes, to which a 3 inch, curved, stainless steel gavage needle was attached. The volume of administration was 1 ml/kg.
The forced swim test data (immobility, swimming, climbing, diving) were subjected to a randomized, one-way ANOVA and post hoc tests conducted using the Student-Newman-heuls test. The data were analyzed using the GBSTAT program, version 6.5 (Dynamics Microsystems, Inc., Silver Spring, MD, 1997). All data are presented as means ± S.E.M.

Chain of NE transporter (Rattus norvegicus, UniProt Q63380) (Q63380 1-617): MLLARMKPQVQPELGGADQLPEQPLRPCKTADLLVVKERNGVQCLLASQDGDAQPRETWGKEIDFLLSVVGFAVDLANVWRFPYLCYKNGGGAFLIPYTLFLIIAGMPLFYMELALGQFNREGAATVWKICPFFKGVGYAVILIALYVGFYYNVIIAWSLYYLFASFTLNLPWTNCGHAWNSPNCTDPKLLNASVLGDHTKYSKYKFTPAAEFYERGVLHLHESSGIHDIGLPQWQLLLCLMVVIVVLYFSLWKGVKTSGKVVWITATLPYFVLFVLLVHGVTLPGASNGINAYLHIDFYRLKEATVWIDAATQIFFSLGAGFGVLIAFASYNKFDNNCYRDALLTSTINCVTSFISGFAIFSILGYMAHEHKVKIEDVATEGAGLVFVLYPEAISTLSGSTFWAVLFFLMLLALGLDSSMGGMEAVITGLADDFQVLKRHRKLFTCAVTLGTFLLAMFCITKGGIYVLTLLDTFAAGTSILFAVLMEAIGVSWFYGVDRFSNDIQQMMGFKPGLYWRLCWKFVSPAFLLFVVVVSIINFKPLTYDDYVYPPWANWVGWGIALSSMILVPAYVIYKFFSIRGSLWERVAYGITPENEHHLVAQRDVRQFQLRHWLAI
T1 sequence (P50406 whole entry): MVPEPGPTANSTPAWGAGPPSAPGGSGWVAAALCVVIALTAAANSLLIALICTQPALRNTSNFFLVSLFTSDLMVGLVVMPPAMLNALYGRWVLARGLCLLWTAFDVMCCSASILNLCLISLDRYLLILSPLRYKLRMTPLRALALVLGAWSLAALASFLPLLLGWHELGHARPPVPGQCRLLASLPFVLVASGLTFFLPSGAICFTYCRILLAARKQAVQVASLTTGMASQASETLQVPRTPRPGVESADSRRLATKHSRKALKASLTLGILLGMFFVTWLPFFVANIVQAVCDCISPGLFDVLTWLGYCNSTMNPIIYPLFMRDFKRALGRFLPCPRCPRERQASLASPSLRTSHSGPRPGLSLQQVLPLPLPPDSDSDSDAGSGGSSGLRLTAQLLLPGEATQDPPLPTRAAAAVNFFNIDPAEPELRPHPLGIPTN
Chain of 5HT transporter (P31652 whole entry): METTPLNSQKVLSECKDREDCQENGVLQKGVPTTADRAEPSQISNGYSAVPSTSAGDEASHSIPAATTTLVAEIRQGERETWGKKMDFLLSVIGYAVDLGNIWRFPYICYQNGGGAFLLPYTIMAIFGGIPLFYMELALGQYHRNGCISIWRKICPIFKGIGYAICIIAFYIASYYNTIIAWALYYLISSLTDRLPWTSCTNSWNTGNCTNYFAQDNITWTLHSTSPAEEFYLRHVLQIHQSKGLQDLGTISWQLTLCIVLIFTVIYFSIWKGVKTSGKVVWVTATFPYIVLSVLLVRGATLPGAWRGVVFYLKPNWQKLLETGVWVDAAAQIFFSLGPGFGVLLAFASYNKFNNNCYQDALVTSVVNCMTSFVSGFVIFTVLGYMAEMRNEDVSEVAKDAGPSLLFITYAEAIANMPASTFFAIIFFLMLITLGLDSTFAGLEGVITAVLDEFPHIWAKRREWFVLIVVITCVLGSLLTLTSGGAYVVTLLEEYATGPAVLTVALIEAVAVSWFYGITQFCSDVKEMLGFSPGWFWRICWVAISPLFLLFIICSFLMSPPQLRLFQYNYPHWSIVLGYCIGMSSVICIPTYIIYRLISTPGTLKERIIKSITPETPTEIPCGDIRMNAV

In the case of `O=C1C(=Nc2ccc(C(F)(F)F)cc2)c2ccccc2N1c1ccccc1` [Example 95, 1-PHENYL-3-[[4-(TRIFLUOROMETHYL)PHENYL]IMINO]-1,3-DIHYDRO-2H-INDOL-2-ONE], at human 5HT6, the Ki is 21.5 µM and the “selectivity ratio h5HT6” value is reported as over 100. In addition, on NE transporter [1], the Ki was 6.1 µM. Further, the “selectivity ratio rNE Uptk” value with NE transporter [2] is reported as over 100. On 5HT transporter, the inhibition constant Ki was over 50 µM and the “selectivity ratio r5HT Uptk” value was over 100. In the assay with Male Sprague-Dawley rats (3 mg/kg p.o.), this molecule registered a Climbing of 2.6 ± 0.8, a Diving of 0.0 ± 0.0, an Immobility of 40 ± 3.3 and a Swimming of 17.1 ± 2.5. Also, in the assay with Male Sprague-Dawley rats (10 mg/kg p.o.), the Climbing is 1.3 ± 0.5, the Diving is given as 0.1 ± 0.1, the Immobility is 52 ± 1.2^a and the Swimming is given as 6.9 ± 0.9^b. In addition, in the assay with Male Sprague-Dawley rats (30 mg/kg p.o.), the Climbing was found to be 1.0 ± 0.3, the Diving is 0.0 ± 0.0, the Immobility is on record as 54 ± 0.9^a and the Swimming is listed as 4.8 ± 0.7^b. Also, the “antidepressant profile in the FST (conclusion)” value (“antidepressant profile” for short) in the assay with Male Sprague-Dawley rats is “does not produce antidepressant-like actions”.

In the case of `Cc1ccc(Nc2cc(N(C)C)nc(N(C)CCc3c[nH]c4ccccc34)n2)cc1` [Example 77], on human 5HT6, the Ki is 0.503 µM and the “selectivity ratio h5HT6” value was 6. Further, the inhibition constant (Ki) on NE transporter [1] worked out at 28.1 µM. Further, the “selectivity ratio rNE Uptk” value in the assay on NE transporter [2] was over 100. Also, at 5HT transporter, the inhibition constant (Ki) was found to be 0.821 µM and the “selectivity ratio r5HT Uptk” value was 10.

As to `Cc1ccc(Nc2cc(N3CCCCC3)nc(N(C)CCc3ccccc3)n2)cc1` [Example 22], on human 5HT6, the inhibition constant Ki is 2.26 µM and the “selectivity ratio h5HT6” value is over 30. Also, the inhibition constant (Ki) on NE transporter [1] turned out to be 13.1 µM. For the same molecule, in the assay with NE transporter [2], the “selectivity ratio rNE Uptk” value is given as over 100. Besides, at 5HT transporter, the inhibition constant Ki is 8.48 µM and the “selectivity ratio r5HT Uptk” value is over 100. In the assay with Male Sprague-Dawley rats (3 mg/kg p.o.), this molecule yielded a Climbing of 2.0 ± 0.6, a Diving of 0.4 ± 0.4, an Immobility of 50 ± 0.9 and a Swimming of 7.6 ± 0.5. In addition, in the assay with Male Sprague-Dawley rats (10 mg/kg p.o.), the Climbing was found to be 2.9 ± 0.5, the Diving is 0.4 ± 0.3, the Immobility is 41 ± 1.3^c and the Swimming is 15.3 ± 0.8^g. Also, in the assay with Male Sprague-Dawley rats (30 mg/kg p.o.), the Climbing was 5.2 ± 1.0^a, the Diving was 0.0 ± 0.0, the Immobility is 31 ± 2.8^b and the Swimming is 23.2 ± 2.0^f. Also, the “antidepressant profile” value in the assay with Male Sprague-Dawley rats is “has antidepressant properties”.

With `O=C1C(=Nc2ccc(Cl)cc2)c2ccccc2N1c1ccccc1` [Example 97, 3-[(4-CHLOROPHENYL)IMINO]-1-PHENYL-1,3-DIHYDRO-2H-INDOL-2-ONE], the Ki was 29.1 µM on human 5HT6, 4.41 µM on NE transporter [1] and 36.3 µM at 5HT transporter. Also, at human 5HT6, the “selectivity ratio h5HT6” value is listed as over 100. The “selectivity ratio rNE Uptk” value in the assay with NE transporter [2] was over 30. For the same molecule, at 5HT transporter, the “selectivity ratio r5HT Uptk” value is recorded as over 100.

`COc1cccc(Nc2cc(N3CCCCC3)nc(N(C)CCc3c[nH]c4ccccc34)n2)c1` [Example 17]: on human 5HT6, the inhibition constant (Ki) came out at 0.711 µM and the “selectivity ratio h5HT6” value is 8. Besides, the Ki at NE transporter [1] was 18.3 µM. The “selectivity ratio rNE Uptk” value in the assay on NE transporter [2] is over 100. On 5HT transporter, the Ki was found to be 0.719 µM and the “selectivity ratio r5HT Uptk” value was 8.

For the molecule `CN(C)c1cc(Nc2ccc(Cl)c(Cl)c2)nc(Nc2ccccc2)n1` [Example 60], at human 5HT6, the Ki amounted to 47.5 µM and the “selectivity ratio h5HT6” value is recorded as over 100. On NE transporter [1], the Ki was determined as 46.1 µM. Besides, the “selectivity ratio rNE Uptk” value with NE transporter [2] is over 100. Besides, at 5HT transporter, the inhibition constant Ki is 25.3 µM and the “selectivity ratio r5HT Uptk” value is over 100.

In the case of `O=C1C(=Nc2ccc(Br)cc2)c2ccccc2N1c1ccccc1` [Example 98, 3-[(4-BROMOPHENYL)IMINO]-1-PHENYL-1,3-DIHYDRO-2H-INDOL-2-ONE], on human 5HT6, the Ki came to 14 µM and the “selectivity ratio h5HT6” value was over 100. Further, on NE transporter [1], the inhibitory constant (Ki) worked out at 5.5 µM. Further, the “selectivity ratio rNE Uptk” value in the assay on NE transporter [2] is recorded as over 100. In addition, on 5HT transporter, the Ki came to 36.3 µM and the “selectivity ratio r5HT Uptk” value is given as over 100. For the same molecule, in the assay on Male Sprague-Dawley rats (3 mg/kg p.o.), the Climbing is given as 4.3 ± 0.9^b, the Diving is given as 0.1 ± 0.1, the Immobility is reported as 35 ± 2.6^a and the Swimming was 20.4 ± 1.9^c. In the assay with Male Sprague-Dawley rats (10 mg/kg p.o.), the Climbing turned out to be 2.4 ± 0.3, the Diving is recorded as 0.8 ± 0.4, the Immobility is listed as 39 ± 1.1^a and the Swimming is 17.6 ± 1.0^c. Also, in the assay on Male Sprague-Dawley rats (30 mg/kg p.o.), the Climbing was determined as 2.0 ± 0.3, the Diving was 0.2 ± 0.2, the Immobility is 38 ± 2.3^a and the Swimming is recorded as 20.3 ± 2.1^c. Moreover, the “antidepressant profile” value in the assay with Male Sprague-Dawley rats is “resembling that of the clinically established antidepressant fluoxetine”.

As to `O=C1C(=Nc2cccc(Cl)c2)c2ccccc2N1c1ccccc1` [Example 94, 3-[(3-CHLOROPHENYL)IMINO]-1-PHENYL-1,3-DIHYDRO-2H-INDOL-2-ONE], on human 5HT6, the inhibition constant (Ki) came out at 3.65 µM and the “selectivity ratio h5HT6” value is over 30. Also, the inhibition constant Ki at NE transporter [1] came out at 4.88 µM. In the assay with NE transporter [2], the “selectivity ratio rNE Uptk” value was over 30. On 5HT transporter, the Ki was 13 µM and the “selectivity ratio r5HT Uptk” value is listed as over 100.

What is called Ki is the dissociation constant of the complex between target and ligand, obtained from inhibition or displacement.
